Source: US20070265306A1, “4-[(3-fluorophenoxy)phenylmethyl]piperidine methanesulfonate: uses, process of synthesis and pharmaceutical compositions” (priority 2006, published 2007)
Structures can show the parent of a compound that is named as a salt. Where two headings read alike, the source gives them in different places. Each block holds one compound with its values, some of them ahead of it.

Tests used:
[1] = as mentioned in U.S. Pat. No. 6,518,284 B2 and EP1002794; cited from earlier work
hygroscopicity = type: physicochemical
[2] = test system: immobility in the tail suspension test; conditions: mice, orally administered, acute; cited from earlier work
[3] = test system: hyperactivity induced by olfactory bulbectomy; conditions: rats, chronic administration 14 days, 30 mg kg(−1) day(−1), p. o.; cited from earlier work
social interaction time = conditions: rats, 14 days, 30 mg kg(−1) day(−1), p. o.; cited from earlier work
5-HTP-induced syndrome = conditions: mice, orally administered, acute; cited from earlier work
[4] = test system: apomorphine-induced hypothermia; conditions: mice, orally administered, acute; cited from earlier work
[5] = test system: immobility in the forced swimming test; conditions: rats, 30 mg/kg, p.o.; cited from earlier work
[6] = test system: dorsal raphe serotonergic neurones; conditions: in vivo; cited from earlier work
[7] = test system: immobility in the forced swimming test; conditions: mice, 30 mg/kg, p.o.; cited from earlier work
[8] = studies of stability under forced conditions; type: physicochemical
Method: Additionally, the compound of formula I has shown excellent stability properties. The compound of formula I has remained stable for at least 6 months in studies of stability under forced conditions at 50 and 60° C., as well as at 40° C. and 75% humidity. This represents more than 2 years of stability under normal conditions.

Structure (SMILES): Fc1cccc(O[C@H](c2ccccc2)C2CCNCC2)c1 (as salt: fumaric acid salt) [(S)-4-[(3-fluorophenoxy)phenylmethyl]piperidine]
melting point: 105 to 108 °C

Structure (SMILES): Fc1cccc(OC(c2ccccc2)C2CCNCC2)c1 (racemic) [4-[(3-fluorophenoxy)phenylmethyl]piperidine]
solubility in water [1]: insoluble in water

Structure (SMILES): Cl.Fc1cccc(O[C@H](c2ccccc2)C2CCNCC2)c1 [(S)-4-[(3-fluorophenoxy)phenylmethyl]piperidine hydrochloric acid salt]
hygroscopicity (hygroscopicity): hygroscopic
melting point: 55 to 60 °C

Structure (SMILES): Fc1cccc(O[C@H](c2ccccc2)C2CCNCC2)c1.O=S(=O)(O)O [(S)-4-[(3-fluorophenoxy)phenylmethyl]piperidine sulphuric acid salt]
hygroscopicity (hygroscopicity): hygroscopic

Structure (SMILES): Fc1cccc(O[C@H](c2ccccc2)C2CCNCC2)c1 [(S)-4-[(3-fluorophenoxy)phenylmethyl]piperidine]
MED, reduction of immobility in the tail suspension test [2]: 10 mg/kg
hyperactivity induced by olfactory bulbectomy [3]: attenuates the hyperactivity
social interaction time (social interaction time): significantly increases
minimal effective dose (MED), potentiation of 5-HTP-induced syndrome (5-HTP-induced syndrome): 10 mg/kg
ED50, antagonism of hypothermia induced by a high dose of apomorphine [4]: 2 mg/kg
immobility in the forced swimming test [5]: decreases the immobility
ED50, decrease of electrical activity of dorsal raphe serotonergic neurones [6]: 0.5303 mg/kg
immobility in the forced swimming test [7]: decreases the immobility

hygroscopicity (hygroscopicity): not hygroscopic
time remained stable under forced conditions ([8]; 40° C. and 75% humidity): at least 6 months
time remained stable under forced conditions ([8]; 50° C.): at least 6 months
time remained stable under forced conditions ([8]; 60° C.): at least 6 months
stability under normal conditions ([8]; normal conditions, extrapolated from forced conditions): more than 2 years
Structure (SMILES): CS(=O)(=O)O.Fc1cccc(OC(c2ccccc2)C2CCNCC2)c1 (stereo not drawn) [compound of formula I, 4-[(3-fluorophenoxy)phenylmethyl]piperidine methanesulfonic acid salt]
